ChEMBL document CHEMBL1131509, “Synthesis and cytotoxicity of 2-acetyl-4,8-dihydrobenzodithiophene-4, 8-dione derivatives” (J Med Chem, 1998)

Assays:
[1] = test system: SK-MEL-28; test: in vitro inhibition of melanoma (SK-MEL-28) cancer cell line; type: functional; details: Homo sapiens
[2] = test system: NCI-H23; test: in vitro inhibition of non-small-cell lung (NCI-H23) cancer cell line; type: functional; details: Homo sapiens
[3] = test system: Hs-578T; test: in vitro inhibition of breast (HS 578T) cancer cell line; type: functional; details: Homo sapiens
[4] = test system: LOX IMVI; test: in vitro inhibition of melanoma(LOX IMVI) cancer cell line; type: functional; details: Homo sapiens
[5] = test system: OVCAR-8; test: in vitro inhibition of ovarian (OVCAR-8) cancer cell line; type: functional; details: Homo sapiens
[6] = test system: MDA-N; test: in vitro inhibition of breast (MDA-N) cancer cell line; type: functional; details: Homo sapiens
[7] = test system: OVCAR-3; test: in vitro inhibition of ovarian (OVCAR-3) cancer cell line; type: functional; details: Homo sapiens
[8] = test system: MDA-MB-435; test: in vitro inhibition of breast (MDA-MB-435) cancer cell line; type: functional; details: Homo sapiens
[9] = test system: NCI-H522; test: in vitro inhibition of non-small-cell lung (NCI-H522) cancer cell line; type: functional; details: Homo sapiens
[10] = test system: SK-MEL-5; test: in vitro inhibition of melanoma (SK-MEL-5) cancer cell line; type: functional; details: Homo sapiens
[11] = test system: M14; test: in vitro inhibition of melanoma (M14) cancer cell line; type: functional; details: Homo sapiens
[12] = test system: UACC-257; test: in vitro inhibition of melanoma (UACC-257) cancer cell line; type: functional; details: Homo sapiens
[13] = test system: UACC-62; test: in vitro inhibition of melanoma (UACC-62) cancer cell line; type: functional; details: Homo sapiens
[14] = test system: SK-MEL-2; test: in vitro inhibition of melanoma (SK-MEL-2) cancer cell line; type: functional; details: Homo sapiens
[15] = test system: Malme-3M; test: in vitro inhibition of melanoma (MALME-3M) cancer cell line; type: functional; details: Homo sapiens
[16] = test system: HL-60; test: in vitro inhibition of leukemia (HL-60(TB)) cancer cell line; type: functional; details: Homo sapiens
[17] = test system: BT-549; test: in vitro inhibition of breast (BT-549) cancer cell line; type: functional; details: Homo sapiens
[18] = test system: BT-549; test: in vitro inhibition of breast (BT-549) cancer cell line; details: Homo sapiens
[19] = test system: MCF7; test: cytotoxic activity against […] cancer cell line; type: functional, cell-based; details: Homo sapiens
[20] = test system: HCT-8; test: cytotoxic activity against […] cancer cell line; type: functional, cell-based; details: Homo sapiens
[21] = test system: L1210 (1565); test: cytotoxic activity against leukemia (L-1210) cancer cell line; type: functional, cell-based; details: Mus musculus
[22] = test system: P388; test: cytotoxic activity against leukemia (P-388) cancer cell line; type: functional, cell-based; details: Mus musculus
[23] = test system: KB; test: cytotoxic activity against […] cancer cell line; type: functional, cell-based; details: Homo sapiens
[24] = test system: CAKI-1; test: cytotoxic activity against […] cancer cell line; type: functional, cell-based; details: Homo sapiens
[25] = test system: A549; test: cytotoxic activity against […] cancer cell line; type: functional, cell-based; details: Homo sapiens
[26] = test system: SK-MEL-2; test: cytotoxic activity against […] cancer cell line; type: functional, cell-based; details: Homo sapiens

Structure (SMILES) | GI50 [1] [nM] | GI50 [2] [nM] | GI50 [3] [nM] | GI50 [4] [nM] | GI50 [5] [nM] | GI50 [6] [nM] | GI50 [7] [nM] | GI50 [8] [nM] | GI50 [9] [nM] | GI50 [10] [nM] | GI50 [11] [nM] | GI50 [12] [nM] | GI50 [13] [nM] | GI50 [14] [nM] | GI50 [15] [nM] | GI50 [16] [nM] | GI50 [17] [nM] | also measured
CC(O)c1cc2c(s1)C(=O)c1sccc1C2=O (configuration not stated) | 39 | 16 | 58 | 24 | 160 | 19 | 120 | 16 | 120 | 14 | 15 | 18 | 22 | 31 | 19 | 69 | 35 | –
CC(=O)OC(C)c1cc2c(s1)C(=O)c1sccc1C2=O (configuration not stated) | 650 | 220 | 510 | 210 | 1400 | 19 | 490 | 180 | 870 | 110 | 160 | 210 | 1400 | 420 | 120 | 1700 | 280 | –
CC(=O)c1cc2c(s1)C(=O)c1c(C(C)=O)csc1C2=O | 1800 | 1300 | 2400 | 1100 | 1500 | 170 | 230 | 180 | 530 | 1200 | 1500 | 560 | 2000 | 1700 | 130 | 53 | – | GI50 [18]: 1700 nM
CC(=O)c1cc2c(s1)C(=O)c1scc(C(C)=O)c1C2=O | 200 | 290 | 280 | 22 | 230 | 200 | 30 | 230 | 380 | 320 | 440 | 170 | 230 | 160 | 220 | < 10 | 910 | –
CC(O)c1cc2c(s1)C(=O)c1c(C(C)O)csc1C2=O (configuration not stated) | 190 | 34 | 320 | 55 | 220 | 21 | 12 | 18 | 300 | 13 | 58 | 62 | 32 | 110 | 28 | 11 | – | GI50 [18]: 160 nM
O=C1c2ccsc2C(=O)c2ccsc21 | – | – | – | – | – | – | – | – | – | – | – | – | – | – | – | – | – | IC50 [19]: 480 nM; IC50 [20]: 320 nM; IC50 [21]: 1700 nM; IC50 [22]: < 530 nM; IC50 [23]: 310 nM; IC50 [24]: 1500 nM; IC50 [25]: 260 nM
O=C1c2ccsc2C(=O)c2sccc21 | – | – | – | – | – | – | – | – | – | – | – | – | – | – | – | – | – | IC50 [19]: < 85 nM; IC50 [20]: 170 nM; IC50 [23]: 270 nM; IC50 [26]: 320 nM; IC50 [24]: 590 nM; IC50 [25]: 170 nM
CC(=O)c1cc2c(s1)C(=O)c1sccc1C2=O | < 10 | 18 | 36 | < 10 | 31 | < 10 | < 10 | < 10 | 17 | < 10 | 17 | 14 | 17 | 33 | 16 | < 10 | 18 | –
CC(=O)OC(C)c1cc2c(s1)C(=O)c1ccsc1C2=O (configuration not stated) | 19 | 11 | 160 | < 10 | 36 | < 10 | < 10 | < 10 | 150 | 14 | 13 | 25 | 17 | 26 | < 10 | < 10 | – | GI50 [18]: 46 nM
CC(=O)OC(C)c1cc2c(s1)C(=O)c1scc(C(C)OC(C)=O)c1C2=O (configuration not stated) | 210 | 160 | 250 | 120 | 230 | 59 | 270 | 21 | 200 | 34 | 120 | 170 | 200 | 150 | 130 | 650 | 200 | –
CC(=O)OC(C)c1cc2c(s1)C(=O)c1c(C(C)OC(C)=O)csc1C2=O (configuration not stated) | 1700 | 870 | 2100 | 1600 | 460 | 210 | 280 | 190 | < 10 | 630 | 510 | 630 | 1100 | 1600 | 190 | 68 | – | GI50 [18]: 2100 nM
CC(=O)c1cc2c(s1)C(=O)c1ccsc1C2=O | 160 | 150 | 160 | 25 | 300 | 37 | 160 | 37 | 160 | 23 | 130 | 130 | 210 | 200 | 117 | 45 | 180 | –
CC(O)c1cc2c(s1)C(=O)c1scc(C(C)O)c1C2=O (configuration not stated) | 230 | 190 | 320 | 120 | 260 | 150 | 360 | 160 | 400 | 140 | 160 | 160 | 250 | 200 | 150 | 440 | 200 | –
CC(O)c1cc2c(s1)C(=O)c1ccsc1C2=O (configuration not stated) | 17 | 15 | 110 | 10 | 200 | 13 | 24 | < 10 | 120 | < 10 | 15 | 15 | 16 | 91 | 16 | 15 | 78 | –
